Laboratory results reported in patent US5478828A, “Piperazinyl-and piperidinyl-cyclohexanols” (Bristol-Myers Squibb Company, priority 1995, dated 1995).

Assays:
D2 receptor = target: T1, D2 receptor (Bos taurus, UniProt P20288); assay: In vitro receptor binding, D2; settings: in vitro; read-out: D2 receptor binding IC50
T1 construct: from tissue
Method: In vitro IC50 test values for binding to the D2 receptor were determined for representative compounds of Formula I by the method of Burt, Creese, and Snyder, Molecular Pharmacology 12, 800 (1976); Creese, Burt, and Snyder, Science 196, 326 (1977); and Creese, Burt and Snyder, Science.

5-HT1A receptor = assay: In vitro receptor binding, 5-HT1A
Method: In vitro IC50 test values for binding to the 5-HT1A receptor were determined for representative compounds of Formula I by the method of S. J. Peroutka, Brain Research 344, 167 (1985); with only minor modifications. Test IC50 values lower than 100 nM are considered to reflect activity at the 5-HT1A receptor.

[1] = system: rat social interaction task (anxiety); assay: Rat social interaction task (in vivo model of anxiety); settings: given subcutaneously

T1 sequence (P20288 whole entry): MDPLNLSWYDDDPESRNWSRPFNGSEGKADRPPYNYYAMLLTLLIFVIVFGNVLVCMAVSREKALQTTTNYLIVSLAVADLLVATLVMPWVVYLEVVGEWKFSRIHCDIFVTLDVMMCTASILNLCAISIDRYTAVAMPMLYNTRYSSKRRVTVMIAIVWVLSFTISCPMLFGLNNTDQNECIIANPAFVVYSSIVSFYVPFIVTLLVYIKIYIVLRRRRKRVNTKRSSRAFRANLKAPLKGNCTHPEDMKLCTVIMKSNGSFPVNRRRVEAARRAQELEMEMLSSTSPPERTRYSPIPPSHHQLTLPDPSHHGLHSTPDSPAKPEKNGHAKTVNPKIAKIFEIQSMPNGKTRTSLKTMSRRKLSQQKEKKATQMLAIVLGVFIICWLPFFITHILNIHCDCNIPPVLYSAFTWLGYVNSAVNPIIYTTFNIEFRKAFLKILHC

IC50 (D2 receptor) [nM] | IC50 (5-HT1A receptor) [nM] | SMILES | Rat social interaction task, active doses [1]
7080 | 12.8 | O=[N+]([O-])c1ccccc1CN1CCN([C@H]2CC[C@](O)(c3ccc4c(c3)OCO4)CC2)CC1 [Example 25, Z-1-(1,3-Benzodioxol-5-yl)-4-[4-[(2,-nitrophenyl)methyl]-1-piperazinyl]cyclohexanol] | –
– | 34.7 | O[C@]1(c2ccc(F)cc2)CC[C@H](N2CCN(Cc3cc(F)ccc3F)CC2)CC1 [Example 36, Z-1-(4-Fluorophenyl)-4-[4-[(2,5-difluorophenyl)methyl]-1-piperazinyl]cyclohexanol] | 0.01-10 mpk
2550 | 4.2 | Cc1ccccc1CN1CCN([C@H]2CC[C@](O)(c3ccc4c(c3)OCO4)CC2)CC1 [Example 24, Z-1-(1,3-Benzodioxol-5-yl)-4-[4-[(2-methylphenyl)methyl]-1-piperazinyl]cyclohexanol] | –
2710 | 15.6 | COc1ccc([C@]2(O)CC[C@@H](N3CCC(Cc4ccccc4)CC3)CC2)cc1 [Example 16, Z-1-(4-Methoxyphenyl)-4-[4-(phenylmethyl)-1-piperidinyl]cyclohexanol] | –
> 1000 | 5.4 | O[C@]1(c2ccc3c(c2)OCO3)CC[C@H](N2CCC(Cc3ccccc3)CC2)CC1 [Example 15, Z-1-(1,3-Benzodioxol-5-yl)-4-[4-(phenylmethyl)-1-piperidinyl]cyclohexanol] | –
49200 | 8.2 | COc1cccc(CC2CCN([C@H]3CC[C@](OC)(c4ccc5c(c4)OCO5)CC3)CC2)c1 [Example 44, Z-1-[4-(1,3-Benzodioxol-5-yl)-4-methoxy-1-cyclohexyl]-4-[(3-methoxyphenyl)methyl]-piperidine] | –
15200 | 9.9 | O[C@]1(c2ccc3c(c2)OCCO3)CC[C@H](N2CCN(Cc3ccccc3)CC2)CC1 [Example 20-Z, Z-1-(1,4-Benzodioxan-6-yl)-4-[4-(phenylmethyl)-1-piperazinyl]cyclohexanol] | –
1350 | 14 | CO[C@]1(c2ccc3c(c2)OCO3)CC[C@H](N2CCN(Cc3ccccc3)CC2)CC1 [Example 19, Z-1-[4-(1,3,-Benzodioxol-5-yl)-4-methoxycyclohexyl]-4-(phenylmethyl)piperazine] | –

SMILES | IC50 (D2 receptor) [nM] | IC50 (5-HT1A receptor) [nM] | Rat social interaction task, active doses [1]
COc1ccc([C@]2(O)CC[C@@H](N3CCN(Cc4ccccc4)CC3)CC2)cc1 [Example 18, Z-1-(4-Methoxyphenyl):4-[4-(phenylmethyl)-1-piperazinyl]cyclohexane] | 1830 | 46.5 | –
O[C@]1(c2ccc3c(c2)OCO3)CC[C@H](N2CCN(Cc3ccccc3)CC2)CC1 [Example 17, Z-1-(1,3-Benzodioxol-5-yl)-4-[4-(phenylmethyl)-1-piperazinyl]cyclohexanol] | 1710 | 20 | –
COc1cccc(CN2CCN([C@H]3CC[C@](O)(c4ccc5c(c4)OCO5)CC3)CC2)c1 [Example 21, Z-1-(1,3,-Benzodioxol-5-yl)-4-[4-[(3-methoxyphenyl)methyl]-1-piperazinyl]-cyclohexanol] | 1040 | 2.15 | –
